Measurements as given in PubChem BioAssay AID248 (DTP/NCI, 2004).
“And” between values parts separate entries of the source, which are not always exact repeats. Identical values can stand only once. Toxic doses and inconclusive results are not listed. No stated cut-off is given here; in the data, active means T/C of 150% or more; inactive means T/C below 125%.

Test system: L1210 leukemia ip in BDF1 mice, survival T/C
Test: NCI In Vivo Anticancer Drug Screen. Data for tumor model L1210 Leukemia (intraperitoneal) in B6D2F1 (BDF1) mice
Conditions: endpoint: mean survival time, higher = longer survival
How it was run: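 Antitumor effect is assessed in tumor-bearing animals. Survival in the compound arm is compared with a vehicle-dosed control arm and expressed as their quotient.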

[1] = dose: 100.0 mg/kg/injection, schedule: Q04DX003 (ip), vehicle: Klucel (hydroxypropylcellulose) (HPC)
[2] = dose: 200.0 mg/kg/injection, schedule: Q04DX003 (ip), vehicle: Klucel (hydroxypropylcellulose) (HPC)
[3] = dose: 400.0 mg/kg/injection, schedule: Q04DX003 (ip), vehicle: Klucel (hydroxypropylcellulose) (HPC)
[4] = dose: 100.0 mg/kg/injection, schedule: Q01DX009 (ip), vehicle: Klucel (hydroxypropylcellulose) (HPC)
[5] = dose: 100.0 mg/kg/injection, schedule: Q04DX003 (ip), vehicle: saline
[6] = dose: 200.0 mg/kg/injection, schedule: Q01DX009 (ip), vehicle: Klucel (hydroxypropylcellulose) (HPC)
[7] = dose: 200.0 mg/kg/injection, schedule: Q04DX003 (ip), vehicle: saline
[8] = dose: 400.0 mg/kg/injection, schedule: Q01DX009 (ip), vehicle: Klucel (hydroxypropylcellulose) (HPC)
[9] = dose: 400.0 mg/kg/injection, schedule: Q04DX003 (ip), vehicle: saline
[10] = dose: 100.0 mg/kg/injection, schedule: Q01DX001 (ip), vehicle: saline
[11] = dose: 200.0 mg/kg/injection, schedule: Q01DX001 (ip), vehicle: saline
[12] = dose: 400.0 mg/kg/injection, schedule: Q01DX001 (ip), vehicle: saline
[13] = dose: 50.0 mg/kg/injection, schedule: Q01DX009 (ip), vehicle: saline with Tween-80
[14] = dose: 100.0 mg/kg/injection, schedule: Q01DX009 (ip), vehicle: saline with Tween-80
[15] = dose: 100.0 mg/kg/injection, schedule: Q04DX002 (ip), vehicle: saline with Tween-80

Measured: T/C

CCCCCCCCCCCCCCCCNc1cc(C)cc(C)c1
inactive: [1] 96 % of control | [2] 95 % of control | [3] 101 % of control

CC1(C)N=C(N)N=C(N)N1c1cccc(CCCc2ccccc2)c1
inactive: dose: 1.56 mg/kg/injection, schedule: Q01DX001 (ip), vehicle: saline 98 % of control | dose: 3.12 mg/kg/injection, schedule: Q01DX001 (ip), vehicle: saline 91 % of control | dose: 6.25 mg/kg/injection, schedule: Q01DX001 (ip), vehicle: saline 88 % of control | dose: 25.0 mg/kg/injection, schedule: Q01DX001 (ip), vehicle: saline 89 % of control

O=C(NCSC1=NCCS1)NCSC1=NCCS1
inactive: [4] 107 % of control | [5] 97 % of control | [6] 92 % of control | [7] 114 % of control | [8] 96 % of control | [9] 97 % of control

O=C(CC1CC2CCC1C2)Nc1ccccc1 (stereo not drawn)
inactive: [10] 96 % of control | [11] 111 % of control | [12] 100 % of control

CN(C)c1ccc(/C=N/NC(=O)c2ccc(Cl)cc2)cc1
inactive: [13] 100 % of control | [14] 89 % of control

CC(=O)Nc1cc(Cl)c(Cl)c([N+](=O)[O-])c1
inactive: [4] 100 % of control | [6] 97 % of control

Brc1ccc(C[N+]23CN4CN(CN(C4)C2)C3)cc1
inactive: dose: 15.0 mg/kg/injection, schedule: Q01DX015 (ip), vehicle: saline 103 % of control | dose: 30.0 mg/kg/injection, schedule: Q01DX015 (ip), vehicle: saline 102 % of control | dose: 60.0 mg/kg/injection, schedule: Q01DX015 (ip), vehicle: saline 102 % of control | [14] 101 % of control | [5] 105 % of control | dose: 120.0 mg/kg/injection, schedule: Q01DX015 (ip), vehicle: saline 105 % of control | dose: 200.0 mg/kg/injection, schedule: Q01DX009 (ip), vehicle: saline with Tween-80 102 % of control | [7] 103 % of control | dose: 240.0 mg/kg/injection, schedule: Q01DX015 (ip), vehicle: saline 98 % of control | [9] 92 % of control

CCN(c1ccccc1C)S(=O)(=O)c1ccccc1
inactive: [4] 109 % of control | [1] 103 % of control | [6] 101 % of control | [2] 93 % of control | [8] 87 % of control | [3] 95 % of control

Cc1cc(NCCN(C(C)C)C(C)C)nc(Nc2nc3ccc(Cl)cc3[nH]2)n1
inactive: dose: 12.5 mg/kg/injection, schedule: Q01DX009 (ip), vehicle: saline with Tween-80 98 % of control | [13] 91 % of control

O=C(O)c1c(O)c2cc([N+](=O)[O-])ccc2oc1=O
inactive: dose: 100.0 mg/kg/injection, schedule: Q01DX001 (ip), vehicle: carboxymethylcellulose (CMC) 89 % of control | [15] 95 % of control and 111 % of control | dose: 200.0 mg/kg/injection, schedule: Q01DX001 (ip), vehicle: carboxymethylcellulose (CMC) 103 % of control | dose: 200.0 mg/kg/injection, schedule: Q04DX002 (ip), vehicle: saline with Tween-80 114 % of control | dose: 400.0 mg/kg/injection, schedule: Q01DX001 (ip), vehicle: carboxymethylcellulose (CMC) 100 % of control | dose: 400.0 mg/kg/injection, schedule: Q04DX002 (ip), vehicle: saline with Tween-80 115 % of control

O=c1[nH]cc(CCC(F)(F)F)c(=O)[nH]1
inactive: dose: 100.0 mg/kg/injection, schedule: Q04DX002 (ip), vehicle: sodium bicarbonate 102 % of control | dose: 200.0 mg/kg/injection, schedule: Q04DX002 (ip), vehicle: sodium bicarbonate 102 % of control

CCN(CC)CCCNC=O
inactive: dose: 100.0 mg/kg/injection, schedule: Q01DX009 (ip), vehicle: saline 94 % of control | [5] 111 % of control | dose: 200.0 mg/kg/injection, schedule: Q01DX009 (ip), vehicle: saline 94 % of control | [7] 102 % of control | dose: 400.0 mg/kg/injection, schedule: Q01DX009 (ip), vehicle: saline 94 % of control | [9] 108 % of control

c1ccc2c(c1)N=C1CCCC3CCCC123 (stereo not drawn)
inactive: dose: 100.0 mg/kg/injection, schedule: Q## X003 (ip), vehicle: saline 98 % of control | dose: 200.0 mg/kg/injection, schedule: Q## X003 (ip), vehicle: saline 104 % of control | dose: 400.0 mg/kg/injection, schedule: Q## X003 (ip), vehicle: saline 96 % of control

CCC(COC(=O)c1ccc(N(CC)CC)cc1)NC1CCCCC1 (stereo not drawn)
inactive: dose: 75.0 mg/kg/injection, schedule: Q01DX001 (ip), vehicle: carboxymethylcellulose (CMC) 95 % of control | dose: 150.0 mg/kg/injection, schedule: Q01DX001 (ip), vehicle: carboxymethylcellulose (CMC) 95 % of control | dose: 300.0 mg/kg/injection, schedule: Q01DX001 (ip), vehicle: carboxymethylcellulose (CMC) 94 % of control

O=C1C=CC2(CCC23C=CC(=O)O3)O1 (stereo not drawn)
inactive: dose: 13.0 mg/kg/injection, schedule: Q01DX Z (ip), vehicle: saline 96 % of control | dose: 20.0 mg/kg/injection, schedule: Q01DX Z (ip), vehicle: saline 102 % of control | dose: 30.0 mg/kg/injection, schedule: Q01DX Z (ip), vehicle: saline 104 % of control | dose: 45.0 mg/kg/injection, schedule: Q01DX Z (ip), vehicle: saline 102 % of control and 109 % of control

COc1cc(S(=O)(=O)F)ccc1NC(=O)/C=C/c1ccc([N+](=O)[O-])cc1
inactive: [10] 103 % of control | [11] 94 % of control | [12] 100 % of control

O=c1[nH][nH]c(=S)c2[nH]c(=S)n(Cc3ccccc3)c12
inactive: [10] 90 % of control | [11] 93 % of control | [12] 90 % of control

CCCCN(C=S)CCCC
inactive: dose: 25.0 mg/kg/injection, schedule: Q04DX002 (ip), vehicle: saline with Tween-80 98 % of control | dose: 50.0 mg/kg/injection, schedule: Q04DX002 (ip), vehicle: saline with Tween-80 95 % of control | [15] 102 % of control | dose: 100.0 mg/kg/injection, schedule: Q04DX003 (ip), vehicle: saline with Tween-80 92 % of control

O=C(Nc1cccc([N+](=O)[O-])c1)Nc1ccc(F)c([N+](=O)[O-])c1
inactive: [4] 102 % of control | [6] 101 % of control | [8] 98 % of control

N#CCc1ccc([N+](=O)[O-])cc1
inactive: dose: 12.5 mg/kg/injection, schedule: Q01DX009 (ip), vehicle: Klucel (hydroxypropylcellulose) (HPC) 102 % of control | dose: 12.5 mg/kg/injection, schedule: Q04DX003 (ip), vehicle: Klucel (hydroxypropylcellulose) (HPC) 98 % of control | dose: 25.0 mg/kg/injection, schedule: Q01DX009 (ip), vehicle: Klucel (hydroxypropylcellulose) (HPC) 106 % of control | dose: 25.0 mg/kg/injection, schedule: Q04DX003 (ip), vehicle: Klucel (hydroxypropylcellulose) (HPC) 106 % of control | dose: 50.0 mg/kg/injection, schedule: Q04DX003 (ip), vehicle: Klucel (hydroxypropylcellulose) (HPC) 98 % of control

COc1cc(C(=O)CCC(=O)O)c(OC)c(C)c1C
inactive: dose: 100.0 mg/kg/injection, schedule: Q01DX001 (ip), vehicle: other 93 % of control | dose: 200.0 mg/kg/injection, schedule: Q01DX001 (ip), vehicle: other 96 % of control | dose: 400.0 mg/kg/injection, schedule: Q01DX001 (ip), vehicle: other 91 % of control
